Experimental findings from patent US20250179028A1, “ACRYLAMIDE COMPOUNDS” (NRG THERAPEUTICS LTD, priority 2022, published 2025) are described below.

Common to all, as to format: in vitro ADME
Data set [1] has as its target CYP2D6 (Homo sapiens (Human), UniProt P10635). In words: Cytochrome P450 CYP2D6 inhibition in human liver microsomes. Conditions: for IC50 / inhibition at 20 min, 1 µM: human liver microsomes, average value from two experiments; for inhibition at 20 min, 1 µM: probe dextromethorphan 2 µM (dextrorphan formation), 1 uM test compound, negative values = no effective inhibition. Put shortly: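 Human liver microsomes (0.2 mg/mL) with 2 μM dextromethorphan in 100 mM PBS, test compound at 1 μM or 0.1-30 μM, 15 min preincubation then NADPH-started reaction for 20 min at 37° C, in duplicate. Dextrorphan formation by UPLC-MS/MS; IC50 from % decrease versus uninhibited control.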
On the technique in general: Liver microsomes are vesicles of endoplasmic reticulum, rich in cytochrome P450 enzymes.

The nature of data set [2]: Microsomal clearance assay. Conditions: rat liver microsomes; average value from two experiments. How it is done: The microsomal stability of test compounds was evaluated using rat liver microsomes (BiolVT) with and without the cofactors nicotinamide adenine dinucleotide phosphate (NADPH) and undine-diphosphate-glucuronic acid (UDPGA). Reactions were performed in a final volume of 250 μl pre-warmed (37° C.) 100 mM phosphate buffer containing 5 mM MgCl2, 0.025 mg/ml alamethicin, and 0.5 mg/ml rat liver microsomes. NADPH and UDPGA were included at 1 mM and 2 mM respectively, where appropriate. Reactions were started with the addition of 1 μM (final concentration) test compound. Verapamil was used as the positive control. Solutions were incubated in a water bath at 37° C. and aliquots collected at 0.5, 5, 15, 30 and 60 min. Reactions were stopped by the addition of 5 volumes of cold acetonitrile with internal standards (200 nM caffeine and 100 nM tolbutamide). Samples were centrifuged at 3220 g for 40 min. An aliquot of supernatant was diluted 1:1 In ultra-pure H2O, then used for LC-MS/MS analysis. Peak areas were determined from extracted ion chromatograms. The slope value, k, was determined by linear regression of the natural logarithm of the remaining percentage of the parent drug vs. incubation time curve. The in vitro half-life (in vitro t½) was determined from the slope value: in vitro t½=0.693/k. Conversion of the in vitro t½ (min) into the in vitro intrinsic clearance (in vitro CLint, in μL/min/mg protein) was done using the following equation (mean of duplicate determinations): […]

The nature of data set [3]: Hepatocyte clearance assay, human. Conditions: cryopreserved primary human hepatocytes, average value from two experiments, read-out: Human heps Clint. An outline of the steps: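 Cryopreserved rat or human hepatocytes, 0.5×10^6 viable cells/mL in L-15 medium, incubated with compound at 37 °C; samples to 120 min, duplicate. Parent loss by LC/MS/MS; t½ = 0.693/k from ln-linear regression, converted to CLint in μL/min/1×10^6 cells.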

SMILES strings stand for the structures. Where only a bound is given, the exact number is not on record here.

CYP2D6, sequence (P10635 whole entry): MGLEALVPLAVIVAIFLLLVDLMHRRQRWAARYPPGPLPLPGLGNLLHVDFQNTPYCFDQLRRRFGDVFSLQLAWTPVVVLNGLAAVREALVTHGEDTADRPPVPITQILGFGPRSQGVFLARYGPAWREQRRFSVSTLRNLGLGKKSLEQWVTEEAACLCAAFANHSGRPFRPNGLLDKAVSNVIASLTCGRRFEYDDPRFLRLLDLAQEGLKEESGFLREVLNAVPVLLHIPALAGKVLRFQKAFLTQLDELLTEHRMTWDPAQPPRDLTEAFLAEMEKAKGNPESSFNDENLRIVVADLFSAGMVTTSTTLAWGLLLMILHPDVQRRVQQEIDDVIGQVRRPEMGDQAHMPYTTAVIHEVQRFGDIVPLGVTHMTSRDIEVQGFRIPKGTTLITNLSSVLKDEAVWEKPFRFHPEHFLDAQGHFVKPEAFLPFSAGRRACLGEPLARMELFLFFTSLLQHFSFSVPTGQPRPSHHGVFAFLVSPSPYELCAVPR

Turning to `Cc1c(F)cccc1NC(=O)/C=C/c1ccc2cn[nH]c2c1` [Comparative Example 1, (E)-N-(2-methyl-3-fluorophenyl)-3-(1H-indazol-6-yl)acrylamide, reference compound], in data set [1], the “inhibition of CYP2D6 (in words)” value is “highly potent inhibitor of CYP2D6”; the half-maximal inhibitory concentration (IC50) (commonly the concentration at which inhibition is half-maximal) worked out at 0.074 µM; the inhibition (commonly the relative decrease from the control value, in per cent) at 20 min, 1 µM was 86.5%. Besides, in data set [2], the microsomal CLint (in general, the rate of metabolic loss divided by the concentration) at 1 µM came to 43 µL/min/mg. The hepatocyte CLint at 1 µM in data set [3] is 13 µL/min/1e6 cells.

Consider `Cc1c(F)cccc1NC(=O)/C=C/c1ccc2c(c1F)NC(=O)C2` [Example 5, (E)-N-(3-fluoro-2-methylphenyl)-3-(7-fluoro-2-oxoindolin-6-yl)acrylamide], for which the inhibition at 20 min, 1 µM in data set [1] is -2.57%. In data set [2], this compound displayed a microsomal CLint at 1 µM of 17 µL/min/mg.

With `Cc1c(F)cccc1NC(=O)/C=C/c1ccc2oc(=O)[nH]c2c1` [Example 6, (E)-N-(3-fluoro-2-methylphenyl)-3-(2-oxo-2,3-dihydrobenzo[d]oxazol-5-yl)acrylamide], in data set [1], the concentration for half-maximal inhibition (IC50) came to 19 µM and the inhibition at 20 min, 1 µM amounted to 5.08%. This compound also displayed a microsomal CLint at 1 µM in data set [2] of 17 µL/min/mg. In addition, the hepatocyte CLint at 1 µM in data set [3] was less than 3 µL/min/1e6 cells.

`Cc1c(F)cccc1NC(=O)/C=C/c1ccc2c(c1)[nH]c(=O)n2C` [Example 7, (E)-N-(3-fluoro-2-methylphenyl)-3-(1-methyl-2-oxo-2,3-dihydro-1H-benzo[d]imidazol-5-yl)acrylamide]: in data set [1], the IC50 is more than 30 µM and the inhibition at 20 min, 1 µM was 2.27%. For the same compound, the microsomal CLint at 1 µM in data set [2] was 6.5 µL/min/mg. Also, in data set [3], the hepatocyte CLint at 1 µM was determined as 7.63 µL/min/1e6 cells.

Consider `Cc1c(F)cccc1NC(=O)/C=C/c1ccc2c(c1)NC(=O)C2C` (stereo not shown) [Example 8, (E)-N-(3-fluoro-2-methylphenyl)-3-(3-methyl-2-oxoindolin-6-yl)acrylamide], for which the inhibition at 20 min, 1 µM in data set [1] is 3.13%. For the same compound, in data set [2], the intrinsic clearance (microsomal CLint) at 1 µM came to 13 µL/min/mg.

On to `Cc1c(F)cccc1NC(=O)/C=C/c1ccc2c(c1)NC(=O)C2` [Example 10, (E)-N-(3-fluoro-2-methylphenyl)-3-(2-oxoindolin-6-yl)acrylamide], for which, in data set [1], the IC50 was more than 30 µM and the inhibition at 20 min, 1 µM worked out at 3.66%. This compound returned a microsomal CLint at 1 µM in data set [2] of 13 µL/min/mg. Moreover, in data set [3], the hepatocyte CLint at 1 µM amounted to 3.3 µL/min/1e6 cells.

As to `Cc1cccc(C)c1NC(=O)/C=C/c1ccc2c(c1)NC(=O)C2` [Example 19, (E)-N-(2,6-dimethylphenyl)-3-(2-oxoindolin-6-yl)acrylamide], the inhibition at 20 min, 1 µM in data set [1] is -3.04%. The compound also gave a microsomal CLint at 1 µM in data set [2] of 20 µL/min/mg. Also, the hepatocyte CLint at 1 µM in data set [3] was determined as 4.02 µL/min/1e6 cells.

Turning to `CCn1c(=O)[nH]c2cc(/C=C/C(=O)Nc3cccc(F)c3C)ccc21` [Example 22, (E)-3-(1-ethyl-2-oxo-2,3-dihydro-1H-benzo[d]imidazol-5-yl)-N-(3-fluoro-2-methylphenyl)acrylamide], the inhibition at 20 min, 1 µM in data set [1] was determined as 2.05%. The compound further displayed a microsomal CLint at 1 µM in data set [2] of 9.85 µL/min/mg. Besides, in data set [3], the hepatocyte CLint at 1 µM came out at 16.2 µL/min/1e6 cells.

For the compound `Cc1c(F)cccc1NC(=O)/C=C/c1ccc2c(c1)[nH]c(=O)n2C1CC1` [Example 23, (E)-3-(1-cyclopropyl-2-oxo-2,3-dihydro-1H-benzo[d]imidazol-5-yl)-N-(3-fluoro-2-methylphenyl)acrylamide], the inhibition at 20 min, 1 µM in data set [1] amounted to 0.7%. In addition, the microsomal CLint at 1 µM in data set [2] was found to be 9.8 µL/min/mg. Besides, the hepatocyte CLint at 1 µM in data set [3] turned out to be 17.4 µL/min/1e6 cells.

In the case of `Cc1n[nH]c2cc(/C=C/C(=O)NC3CCc4ccccc43)ccc12` (stereo not shown) [Example 25, (E)-N-(2,3-dihydro-1H-inden-1-yl)-3-(3-methyl-1H-indazol-6-yl)acrylamide], in data set [1], the IC50 came to 13.8 µM and the inhibition at 20 min, 1 µM is 2.05%. In data set [2], this compound came in with a microsomal CLint at 1 µM of 52.9 µL/min/mg. In addition, in data set [3], the hepatocyte CLint at 1 µM stood at 21.8 µL/min/1e6 cells.

As to `Cc1ccc(F)c(C)c1NC(=O)/C=C/c1ccc2c(c1)[nH]c(=O)n2C` [Example 30, (E)-N-(3-fluoro-2,6-dimethylphenyl)-3-(1-methyl-2-oxo-2,3-dihydro-1H-benzo[d]imidazol-5-yl)acrylamide], in data set [1], the inhibition at 20 min, 1 µM was -3.33%. In data set [3], the hepatocyte CLint at 1 µM came to 18.1 µL/min/1e6 cells.

Regarding `Cc1c(F)cccc1NC(=O)/C(F)=C/c1ccc2c(c1)NC(=O)C2` [Example 47, (Z)-2-fluoro-N-(3-fluoro-2-methylphenyl)-3-(2-oxoindolin-6-yl)acrylamide], the inhibition at 20 min, 1 µM in data set [1] turned out to be 1.91%. In data set [2], this compound registered a microsomal CLint at 1 µM of 36.8 µL/min/mg. Besides, the hepatocyte CLint at 1 µM in data set [3] turned out to be 4.78 µL/min/1e6 cells.

In the case of `CO[C@H]1Cc2ccccc2[C@@H]1NC(=O)/C=C/c1ccc2c(C)n[nH]c2c1` [Example 54, (E)-N-((1S,2S)-2-methoxy-2,3-dihydro-1H-inden-1-yl)-3-(3-methyl-1H-indazol-6-yl)acrylamide], in data set [1], the inhibition at 20 min, 1 µM stood at 8.2%. Also, the hepatocyte CLint at 1 µM in data set [3] worked out at 10.8 µL/min/1e6 cells.

With `CO[C@H]1Cc2ccccc2[C@@H]1NC(=O)/C=C/c1ccc2c(F)n[nH]c2c1` [Example 73, (E)-3-(3-fluoro-1H-indazol-6-yl)-N-((1S,2S)-2-methoxy-2,3-dihydro-1H-Inden-1-yl)acrylamide], in data set [1], the inhibition at 20 min, 1 µM was 34.6%. Besides, the hepatocyte CLint at 1 µM in data set [3] turned out to be 7.7 µL/min/1e6 cells.
